Experimental data taken from patent US11419806B2, “Prebiotic oral care methods using a saccharide” (Colgate-Palmolive Company, priority 2013, dated 2022).

Experiments:
Assay type in all cases: cell-based
[1] = test system: beneficial oral bacteria and pathogenic oral bacteria; assay: Twenty-four hour biofilm growth, overall prebiotic assessment; conditions: concentrations of 5, 10, 20 and 25 μmol/ml
Description: Substrates that were able to increase the biofilm mass of at least one of the above beneficial bacteria while not or only minimally increasing the biofilm mass of the pathogenic bacteria are considered to be prebiotic compounds.
(§1) The increase in biofilm formation of the tested bacteria in response to selected saccharides (D-turanose, D-lactitol, myo-inositol, and N-acetyl-D-mannosamine) was investigated by setting up biofilm growth assays in a nutritionally rich medium (brain heart infusion broth (BHI), Oxoid), over 24 hours. Late exponential growth phase liquid cultures were prepared by transferring the respective bacterium from blood agar plates to BHI and overnight incubation at 37° C. in an anaerobic atmosphere for A. viscosus, V. parvula, P. gingivalis, P. intermedia, T. forsythia, A. naeslundii, and C. sputigena, and in a 5% CO2 environment for S. salivarius, S. sanguinis, S. mitis, A. actinomycetemcomitans, S. mutans, and S. gordonii. Overnight cultures were transferred to BHI and adjusted to a concentration of 1×10^7 CFU/ml by measuring the optical density at 600 nm (OD600) (BioRad SmartSpec 3000). For each strain, 200 μl of the bacterial suspension was added to a 96-well plate containing 20 μl of the respective saccharides. Final concentrations of the saccharides were set to 5, 10, 20 and 25 μmol/ml. […] Additionally, for each bacterium tested, a background control, to correct for background staining, was added. This background control contained the bacterium tested and 0.03 weight % chlorhexidine, as an antiseptic. Plates were incubated as previously described. After 24 hrs the supernatant was removed from the wells of the plates. The wells were washed twice with 1×100 μL PBS (phosphate buffered saline), fixed for 20 minutes with 96% vol. ethanol (96% vol. solution in water) and the biofilm retained at the bottom of the wells was stained with 1 weight % crystal violet (1 weight % solution in water). The bound dye was dissolved with 5% vol. acetic acid (5% vol. solution in water). Quantification of the stained biofilm was performed by measuring the absorbance at 630 nm using a Multiskan Ascent microplate reader (Thermo Scientific).
The experiment was carried out on three different days (thus providing 3 biological replicas) and each day the experiment was carried out in quadruple (thus providing 4 technical replicas) for each combination of bacterium with saccharide and for each control. For each day and for each combination, the average (mean) of the values obtained (as detailed above) for the four technical replicas was calculated to provide a single value for each combination on each day. The values shown in Tables 7a, 7b, 8a, 8b, below, are the average (mean) of the three single values obtained for each combination of bacterium with saccharide. […]

S. mitis = assay: Twenty-four hour biofilm growth (crystal violet)
Protocol: as §1
(§2) The experiment was carried out on three different days (thus providing 3 biological replicas) and each day the experiment was carried out in quadruple (thus providing 4 technical replicas) for each combination of bacterium with saccharide and for each control. For each day and for each combination, the average (mean) of the values obtained (as detailed above) for the four technical replicas was calculated to provide a single value for each combination on each day. The values shown in Tables 7a, 7b, 8a, 8b, below, are the average (mean) of the three single values obtained for each combination of bacterium with saccharide.

T. forsythia = assay: Twenty-four hour biofilm growth (crystal violet)
Protocol: as §1, §2

S. salivarius = assay: Twenty-four hour biofilm growth (crystal violet)
Protocol: as §1, §2

S. gordonii = assay: Twenty-four hour biofilm growth (crystal violet)
Protocol: as §1, §2

P. intermedia = assay: Twenty-four hour biofilm growth (crystal violet)
Protocol: as §1, §2

A. actinomycetemcomitans = assay: Twenty-four hour biofilm growth (crystal violet)
Protocol: as §1, §2

S. mutans = assay: Twenty-four hour biofilm growth (crystal violet); conditions: for biofilm growth: OD 630 nm at 24 hrs divided by OD of control (control = 1): S mutans
Protocol: as §1, §2

A. viscosus = assay: Twenty-four hour biofilm growth (crystal violet)
Protocol: as §1, §2

P. gingivalis = assay: Twenty-four hour biofilm growth (crystal violet)
Protocol: as §1, §2

C. sputigena = assay: Twenty-four hour biofilm growth (crystal violet)
Protocol: as §1, §2

V. parvula = assay: Twenty-four hour biofilm growth (crystal violet)
Protocol: as §1, §2

S. sanguinis = assay: Twenty-four hour biofilm growth (crystal violet)
Protocol: as §1, §2

A. naeslundii = assay: Twenty-four hour biofilm growth (crystal violet)
Protocol: as §1, §2

OC[C@@H](O)[C@@H](O[C@H]1O[C@H](CO)[C@H](O)[C@H](O)[C@H]1O)[C@H](O)[C@@H](O)CO [D-Lactitol, 4-O-α-D-galactopyranosyl-D-glucitol]
prebiotic effects (biofilm growth, threshold value 1.6) [1]: exhibited prebiotic effects | biofilm growth: OD 630 nm at 24 hrs divided by OD of control (control = 1) (S. mitis; 5 μmol/ml): 0.6696 | biofilm growth: OD 630 nm at 24 hrs divided by OD of control (control = 1) (S. mitis; 10 μmol/ml): 0.5919 | biofilm growth: OD 630 nm at 24 hrs divided by OD of control (control = 1) (S. mitis; 20 μmol/ml): 0.8007 | biofilm growth: OD 630 nm at 24 hrs divided by OD of control (control = 1) (S. mitis; 25 μmol/ml): 0.8340 | biofilm growth: OD 630 nm at 24 hrs divided by OD of control (control = 1) (T. forsythia; 5 μmol/ml): 0.5843 | biofilm growth: OD 630 nm at 24 hrs divided by OD of control (control = 1) (T. forsythia; 10 μmol/ml): 0.5942 | biofilm growth: OD 630 nm at 24 hrs divided by OD of control (control = 1) (T. forsythia; 20 μmol/ml): 0.7398 | biofilm growth: OD 630 nm at 24 hrs divided by OD of control (control = 1) (T. forsythia; 25 μmol/ml): 0.6158 | biofilm growth: OD 630 nm at 24 hrs divided by OD of control (control = 1) (S. salivarius; 5 μmol/ml): 2.1471 | biofilm growth: OD 630 nm at 24 hrs divided by OD of control (control = 1) (S. salivarius; 10 μmol/ml): 4.8849 | biofilm growth: OD 630 nm at 24 hrs divided by OD of control (control = 1) (S. salivarius; 20 μmol/ml): 5.5726 | biofilm growth: OD 630 nm at 24 hrs divided by OD of control (control = 1) (S. salivarius; 25 μmol/ml): 6.4158 | biofilm growth: OD 630 nm at 24 hrs divided by OD of control (control = 1) (S. gordonii; 5 μmol/ml): 0.6036 | biofilm growth: OD 630 nm at 24 hrs divided by OD of control (control = 1) (S. gordonii; 10 μmol/ml): 0.5959 | biofilm growth: OD 630 nm at 24 hrs divided by OD of control (control = 1) (S. gordonii; 20 μmol/ml): 0.4885 | biofilm growth: OD 630 nm at 24 hrs divided by OD of control (control = 1) (S. gordonii; 25 μmol/ml): 0.5149 | biofilm growth: OD 630 nm at 24 hrs divided by OD of control (control = 1) (P. intermedia; 5 μmol/ml): 1.0504 | biofilm growth: OD 630 nm at 24 hrs divided by OD of control (control = 1) (P. intermedia; 10 μmol/ml): 1.0396 | biofilm growth: OD 630 nm at 24 hrs divided by OD of control (control = 1) (P. intermedia; 20 μmol/ml): 1.1500 | biofilm growth: OD 630 nm at 24 hrs divided by OD of control (control = 1) (P. intermedia; 25 μmol/ml): 1.1288 | biofilm growth: OD 630 nm at 24 hrs divided by OD of control (control = 1) (A. actinomycetemcomitans; 5 μmol/ml): 0.6593 | biofilm growth: OD 630 nm at 24 hrs divided by OD of control (control = 1) (A. actinomycetemcomitans; 10 μmol/ml): 0.6496 | biofilm growth: OD 630 nm at 24 hrs divided by OD of control (control = 1) (A. actinomycetemcomitans; 20 μmol/ml): 0.8502 | biofilm growth: OD 630 nm at 24 hrs divided by OD of control (control = 1) (A. actinomycetemcomitans; 25 μmol/ml): 0.8372 | stimulation of biofilm formation of S. mutans (S. mutans; Example 3): does not stimulate | biofilm growth: OD 630 nm at 24 hrs divided by OD of control (control = 1) (S. mutans; 5 μmol/ml): 0.9767 | biofilm growth: OD 630 nm at 24 hrs divided by OD of control (control = 1) (S. mutans; 10 μmol/ml): 0.9333 | biofilm growth: OD 630 nm at 24 hrs divided by OD of control (control = 1) (S. mutans; 20 μmol/ml): 1.1068 | biofilm growth: OD 630 nm at 24 hrs divided by OD of control (control = 1) (S. mutans; 25 μmol/ml): 1.0108 | biofilm growth: OD 630 nm at 24 hrs divided by OD of control (control = 1) (A. viscosus; 5 μmol/ml): 0.6832 | biofilm growth: OD 630 nm at 24 hrs divided by OD of control (control = 1) (A. viscosus; 10 μmol/ml): 0.7502 | biofilm growth: OD 630 nm at 24 hrs divided by OD of control (control = 1) (A. viscosus; 20 μmol/ml): 0.9528 | biofilm growth: OD 630 nm at 24 hrs divided by OD of control (control = 1) (A. viscosus; 25 μmol/ml): 0.9153 | biofilm growth: OD 630 nm at 24 hrs divided by OD of control (control = 1) (P. gingivalis; 5 μmol/ml): 0.9536 | biofilm growth: OD 630 nm at 24 hrs divided by OD of control (control = 1) (P. gingivalis; 10 μmol/ml): 0.9616 | biofilm growth: OD 630 nm at 24 hrs divided by OD of control (control = 1) (P. gingivalis; 20 μmol/ml): 0.8995 | biofilm growth: OD 630 nm at 24 hrs divided by OD of control (control = 1) (P. gingivalis; 25 μmol/ml): 0.9701 | biofilm growth: OD 630 nm at 24 hrs divided by OD of control (control = 1) (C. sputigena; 5 μmol/ml): 0.5867 | biofilm growth: OD 630 nm at 24 hrs divided by OD of control (control = 1) (C. sputigena; 10 μmol/ml): 0.5658 | biofilm growth: OD 630 nm at 24 hrs divided by OD of control (control = 1) (C. sputigena; 20 μmol/ml): 0.6841 | biofilm growth: OD 630 nm at 24 hrs divided by OD of control (control = 1) (C. sputigena; 25 μmol/ml): 0.7591 | biofilm growth: OD 630 nm at 24 hrs divided by OD of control (control = 1) (V. parvula; 5 μmol/ml): 1.0022 | biofilm growth: OD 630 nm at 24 hrs divided by OD of control (control = 1) (V. parvula; 10 μmol/ml): 1.0212 | biofilm growth: OD 630 nm at 24 hrs divided by OD of control (control = 1) (V. parvula; 20 μmol/ml): 0.9658 | biofilm growth: OD 630 nm at 24 hrs divided by OD of control (control = 1) (V. parvula; 25 μmol/ml): 0.9859 | biofilm growth: OD 630 nm at 24 hrs divided by OD of control (control = 1) (S. sanguinis; 5 μmol/ml): 1.2160 | biofilm growth: OD 630 nm at 24 hrs divided by OD of control (control = 1) (S. sanguinis; 10 μmol/ml): 1.5548 | biofilm growth: OD 630 nm at 24 hrs divided by OD of control (control = 1) (S. sanguinis; 20 μmol/ml): 1.8523 | biofilm growth: OD 630 nm at 24 hrs divided by OD of control (control = 1) (S. sanguinis; 25 μmol/ml): 2.2341 | biofilm growth: OD 630 nm at 24 hrs divided by OD of control (control = 1) (A. naeslundii; 5 μmol/ml): 1.0191 | biofilm growth: OD 630 nm at 24 hrs divided by OD of control (control = 1) (A. naeslundii; 10 μmol/ml): 1.0015 | biofilm growth: OD 630 nm at 24 hrs divided by OD of control (control = 1) (A. naeslundii; 20 μmol/ml): 1.0337 | biofilm growth: OD 630 nm at 24 hrs divided by OD of control (control = 1) (A. naeslundii; 25 μmol/ml): 1.0428
